In US9428483B2, “Prodrug of fluorine-containing amino acid” (TAISHO PHARMACEUTICAL CO., LTD., priority 2012, dated 2016):

Legend:
[1] = tested on: phencyclidine-elicited head-weaving behavior; settings: schizophrenia model; cited from earlier work
schizophrenia model rat = settings: cited from earlier work
mGluR3 = mGluR3 (Homo sapiens, UniProt Q14832); settings: read-out: EC50 value for the agonistic activity for mGluR3; cited from earlier work
[2] = tested on: conditioned avoidance response; settings: schizophrenia model; cited from earlier work
[3] = Test 5: plasma concentrations of Compound (IV) in monkey after oral administration; assay type: in vivo, cynomolgus monkeys; settings: in monkeys
Description: A test to measure the plasma concentration of Compound (IV) upon oral administration of Compound (IV) and Inventive Compounds (I) was conducted in accordance with the following method.
Compound (IV) or Inventive Compounds (I) was orally administered to male cynomolgus monkeys (fed condition) at a dose of 4.92 μmol/kg (vehicle: 0.5% methyl cellulose (MC) solution; administered at a dose of 5 mL/kg).
Two and 4 hours after the oral administration, approximately 0.7 mL of blood was taken from the cephalic vein (anticoagulant: EDTA-2K). The plasma recovered by centrifugation (3000 rpm, 4° C.×10 min) was stored frozen at −80° C. until use for analysis. In the case of analysis, 50 μL of the plasma sample was thawed under cooling with ice and after adding 200 μL of a liquid acetonitrile/methanol mixture containing an internal standard substance, the resulting mixture was stirred and centrifuged (4° C.×10 min); the resulting supernatant was subjected to LC-MS/MS analysis. The lower quantitation limits of Inventive Compounds (I) and Compound (IV) were 1 ng/mL and 3 ng/mL, respectively.

mGluR3, sequence (Q14832 23-879): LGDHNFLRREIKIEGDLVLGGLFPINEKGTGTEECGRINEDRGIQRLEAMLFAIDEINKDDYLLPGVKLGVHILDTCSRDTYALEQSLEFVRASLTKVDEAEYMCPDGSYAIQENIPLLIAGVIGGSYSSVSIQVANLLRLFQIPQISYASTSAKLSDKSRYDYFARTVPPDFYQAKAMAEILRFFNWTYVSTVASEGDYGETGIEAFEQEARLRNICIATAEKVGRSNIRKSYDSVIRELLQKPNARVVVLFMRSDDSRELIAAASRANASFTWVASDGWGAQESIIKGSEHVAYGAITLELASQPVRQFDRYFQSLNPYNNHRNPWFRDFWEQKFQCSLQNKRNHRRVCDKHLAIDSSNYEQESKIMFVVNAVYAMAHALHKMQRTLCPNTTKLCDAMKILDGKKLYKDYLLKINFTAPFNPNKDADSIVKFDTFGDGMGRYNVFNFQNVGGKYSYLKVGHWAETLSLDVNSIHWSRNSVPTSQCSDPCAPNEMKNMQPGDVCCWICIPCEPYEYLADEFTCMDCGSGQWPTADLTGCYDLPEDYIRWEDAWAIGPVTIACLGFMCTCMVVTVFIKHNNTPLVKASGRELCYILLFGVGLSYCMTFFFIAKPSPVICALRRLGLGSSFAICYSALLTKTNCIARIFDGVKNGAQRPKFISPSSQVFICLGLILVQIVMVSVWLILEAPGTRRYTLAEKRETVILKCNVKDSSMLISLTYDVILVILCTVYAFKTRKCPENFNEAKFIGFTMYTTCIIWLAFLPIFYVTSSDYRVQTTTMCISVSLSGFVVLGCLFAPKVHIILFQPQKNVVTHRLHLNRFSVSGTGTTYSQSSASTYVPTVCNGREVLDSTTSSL

- oral absorbability [3]: poor
Compound: N[C@]1(C(=O)O)[C@H]2[C@@H](C[C@@H]1F)[C@@H]2C(=O)O [Compound IV, (1S,2S,3S,5R,6S)-2-amino-3-fluorobicyclo[3.1.0]hexane-2,6-dicarboxylic acid]
- effect on phencyclidine-elicited head-weaving behavior [1]: has the effect of suppressing
- ED50 value, suppressing phencyclidine-elicited hyperactivity (schizophrenia model rat): 5.1 mg/kg
- EC50 (mGluR3): 45.4 nM
- effect on conditioned avoidance response [2]: has the effect of suppressing
